# Patent US20100267680A1, “USE OF AT LEAST ONE OXIME DERIVATIVE OF CHOLEST-4-EN-3-ONE AS ANTIOXIDANTS” (priority 2007, published 2010)
# Legend:
# [1] = Oxidation of cumene to cumene hydroperoxide by oxygen with AIBN, HPLC-UV assay; details: for % of reduction of the oxidation of the cumene / Area of the signal, in relative units, of the cumene hydroperoxide: 2 equivalents of AIBN, 2 hours 45° C.
# Procedure: The oxidation of cumene at atmospheric pressure and at 37° C. by oxygen is known and described in the presence of a radical initiator such as AIBN (azobisisobutyronitrile) (Blanchard H. S., J. Am. Chem. Soc. 1959, 81, 4548). A recent publication used this reaction to classify the antioxidant potential of known products such as vitamin E (which is the universal reference), BHT (butylated hydroxytoluene) and other products.
# In the following experiment we reproduced the same experimental conditions as those described in the publication of Becker D. A. et al. (J. Am. Chem. Soc. 2002, 124, 4678-4684). A high pressure liquid chromatography method coupled with a UV detector was used to detect cumene hydroperoxide. The column used is an Agilent Zorbax Eclipse XDB RPC8 column (150×4.6 mm) coupled with a UV detector fixed at 254 nm. The gradient used is detailed in the following table: […]
# 2 ml of cumene (AcrosOrganic) and 0.5 ml of methanol are mixed, azobisisobutyronitrile (AcrosOrganic) is added (2 equivalents) and the solution taken to 45° C. in order to accelerate the chemical reaction. The cumene hydroperoxide appears over time and is assayed by the HPLC method.
# The technique used made it possible to compare the appearance of the cumene hydroperoxide in the presence of an antioxidant agent such as the claimed products and vitamin E used as reference product.
# Beagles = experiment: General toxicity study, oral once daily for 39 weeks; assay type: in vivo; details: suspension in corn oil
# Procedure: A general toxicity study was carried out on Beagles receiving cholest-4-èn-3-one oxime in suspension in corn oil by oral administration once daily for 39 weeks. The detailed toxicological analysis of this study made it possible to describe a dose with a no-observed-effect level (NOEL) at 50 mg/kg.
# [2] = Pharmacokinetics in the dog, oral and intra-venous, plasma assay by HPLC-MS; assay type: in vivo; details: 500 mg/kg oral route, suspension in corn oil, vs intra-venous
# Procedure: A study of pharmacokinetics with administration by oral route in suspension in corn oil and by intra-venous route in solution in cremophor/ethanol/water (5%, 10%, 85%) made it possible to calculate the bioavailability of the product. The assay of the product in the plasma is carried out by a high pressure liquid chromatography method coupled with mass spectrometry.
# [3] = Chemical stability of powder under ICH storage conditions, HPLC-UV total impurities; assay type: physicochemical; details: for total impurities: powder
# Procedure: These analyses were carried out using a high pressure liquid chromatography method coupled with a UV detector. This method makes it possible to quantify the impurities at a level of 0.05%.
# [4] = Competition with DMPO for tBuO radical, EPR quantification of DMPO-tBuO adduct; details: for % inhibition of the DMPO-tBuO radical: compound 20 mM equimolar to DMPO
# Procedure: The nitrones trap the radical species (R.; […]) and allow their observation by electron paramagnetic resonance (EPR) (Degray J. et al. Electron Spin Resonance, Ed N.M. Atherton, Atheaeum Press Ltd; Cambridge, 1994, 14, 246).
# The incubation of the DMPO (Interchim-U2469) (20 mM) in deoxygenated toluene (Sigma-Aldrich) in the presence of the tBuO (tert-butoxyl) radical, generated by photolysis, makes it possible to identify and quantify by EPR the signal of the DMPO-tBuO radical. This signal is inhibited in the presence of an equimolar quantity of cholest-4-en-3-one oxime.
# The EPR signal allows integration in the form of an area of the signal of the DMPO-tBuO adduct and therefore a relative quantification of this radical entity.
# All the experiments were carried out on an X-band Bruker ESP300 device (9.5 GHz) at ambient temperature. The solutions were studied in a quartz EPR tube.
compound,measurement,setting,value
vitamin E [reference compound],% of reduction of the oxidation of the cumene,[1]; 100 μM,39%
same,"Area of the signal, in relative units, of the cumene hydroperoxide",[1]; 100 μM,245 relative units
CC(C)CCC[C@@H](C)[C@H]1CC[C@H]2[C@@H]3CCC4=CC(=NO)CC[C@]4(C)[C@H]3CC[C@]12C [cholest-4-en-3-one oxime],no-observed-effect level (NOEL),Beagles,50 mg/kg
same,bioavailability,[2],6%
same,change in the quality of the product,[3]; after 2 year's storage at 25° C.,No change in the quality of the product
same,change in the quality of the product,[3]; after 6 months of storage at 40° C.,No change in the quality of the product
same,total impurities,"[3]; 25° C. under 60% relative humidity, T0",1.8%
same,total impurities,"[3]; 25° C. under 60% relative humidity, T24 months",1.8%
same,total impurities,"[3]; 40° C. under 75% relative humidity, T0",2.1%
same,total impurities,"[3]; 40° C. under 75% relative humidity, T6 months",1.9%
same,% of reduction of the oxidation of the cumene,[1]; 100 μM,38%
same,"Area of the signal, in relative units, of the cumene hydroperoxide",[1]; 100 μM,250 relative units
same,% of reduction of the oxidation of the cumene,[1]; 200 μM,57%
same,"Area of the signal, in relative units, of the cumene hydroperoxide",[1]; 200 μM,175 relative units
same,reduction of the oxidation of the cumene by oxygen,[1]; conclusion of Example 2,approximately 40%
same,activity compared with vitamin E,"[1]; same concentrations, same conditions",activity similar to vitamin E
same,Area of the DMPO-tBuO signal at 200 s in relative units,"[4]; DMPO 20 mM + compound 20 mM, (t-BuO)2 20 mM, photolysis at 350 nm, 200 s",3 relative units
same,Area of the DMPO-tBuO signal at 400 s in relative units,"[4]; DMPO 20 mM + compound 20 mM, (t-BuO)2 20 mM, photolysis at 350 nm, 400 s",5.5 relative units
same,DMPO-tBuO EPR signal in the presence of an equimolar quantity of compound,"[4]; DMPO 20 mM in deoxygenated toluene, equimolar compound",inhibited
same,% inhibition of the DMPO-tBuO radical,[4]; 200 s,50%
same,% inhibition of the DMPO-tBuO radical,[4]; 400 s,40%
same,inhibition of the level of the DMPO-tBuO signal radical,[4]; conclusion of Example 1,~50%
same,kinetics of inhibition of the DMPO-tBuO signal,[4]; rapid kinetics,less than 10 minutes
